According to patent USRE48461E1, “Modulation of androgen receptor expression” (Ionis Pharmaceuticals, Inc., priority 2012, dated 2021):

Experiments:
[1] = test system: C4-2B cells; assay: C4-2B cell proliferation by free uptake (MTT); type: cell-based, human; settings: day 6
[2] = test system: AR-V7; assay: Western blot of AR-V7 in MDV3100-resistant C4-2B cells; type: cell-based, human; settings: C4-2B MR cells (Example 16)
[3] = test system: AR full-length mRNA; assay: AR full-length mRNA in CWR22-RV1 cells (RNAiMax, RTS3559); type: cell-based, human; settings: 6 days
[4] = test system: CWR22-RV1 cells; assay: CWR22-RV1 cell proliferation (CellTiter 96); type: cell-based, human; settings: RNAiMax, 6 days
[5] = test system: full-length AR; assay: Western blot of full-length AR in MDV3100-resistant C4-2B cells; type: cell-based, human; settings: C4-2B MR cells (Example 16)
[6] = test system: V7 splice variant of the AR mRNA; assay: AR V7 splice variant mRNA in CWR22-RV1 cells (RT-PCR SYBR Green); type: cell-based, human; settings: RNAiMax, 6 days
[7] = test system: AR mRNA; assay: AR mRNA in C4-2B cells by free uptake (hAR_LTS00943); type: cell-based, human; settings: 24 hrs; for Percent inhibition of AR full-length mRNA: free uptake
Protocol: Cells were plated at a concentration of 1,000 cells/well in 96-well plates to measure cell proliferation, and at 4,000 cells/well to measure target reduction. ISIS 549458, ISIS 549372, ISIS 549434, and ISIS 554221 were added individually at 0.04 μM, 0.20 μM, 1.00 μM, or 5.00 μM. After an incubation period of 24 hrs, mRNA levels were measured using hAR_LTS00943.

[8] = test system: LMR20 cells; assay: MDV3100 IC50 in LMR20 clone compared to parental LnCaP cells; type: cell-based, human
[9] = Plasma BUN and creatinine in cynomolgus monkeys; settings: cynomolgus monkey, 40 mg/kg s.c., day 44
[10] = cynomolgus monkey, in vivo, sc, 40 mg/kg
[11] = Full-length oligonucleotide concentration in kidney and liver of cynomolgus monkeys; settings: cynomolgus monkey, 40 mg/kg subcutaneously
[12] = Liver function markers in cynomolgus monkey plasma; settings: 40 mg/kg s.c., day 44
[13] = Body and organ weights in cynomolgus monkeys; settings: cynomolgus monkey, 40 mg/kg s.c.
Protocol: (§1) Prior to the study, the monkeys were kept in quarantine for a 30-day period, during which the animals were observed daily for general health. The monkeys were 2-4 years old and weighed between 2 and 4 kg. Thirteen groups of four randomly assigned male cynomolgus monkeys each were injected subcutaneously with ISIS oligonucleotide or PBS. PBS solution or ISIS oligonucleotides, at a dose of 40 mg/kg, were administered with a loading regimen consisting of four doses on the first week of the study (days 1, 3, 5, and 7), followed by a maintenance regimen consisting of once weekly administration starting on Day 14 (weeks 2 to 6). Subcutaneous injections were performed in clock-wise rotations at 4 sites on the back; one site per dose. The injection sites were delineated by tattoo, while sedated using ketamine, and were separated by a minimum of 3 cm.
To evaluate the effect of ISIS oligonucleotides on the overall health of the animals, body and organ weights were measured.

[14] = Hematological parameters in cynomolgus monkeys; settings: cynomolgus monkey, 40 mg/kg s.c., day 44
Protocol: as §1
To evaluate any effect of ISIS oligonucleotides in cynomolgus monkeys on hematologic parameters, blood samples of approximately 0.5 mL of blood was collected day 44 from each of the available study animals in tubes containing K2-EDTA. Samples were analyzed for red blood cell (RBC) count, white blood cells (WBC) count, platelet count, hemoglobin content and hematocrit, using an ADVIA2120i hematology analyzer (SIEMENS, USA).

[15] = cynomolgus monkey, in vivo, sc, 40 mg/kg; remark: listed apart in the source
Protocol: as §1
Kidney function was also assessed by urinalysis. Fresh urine from all animals was collected on day 44 using a clean cage pan on wet ice. Food was removed overnight the day before fresh urine collection was done but water was supplied. The total protein and creatinine levels were measured using a Toshiba 120FR NEO automated chemistry analyzer (Toshiba Co., Japan) and the protein to creatinine ratio was calculated.

## GTTGATTTAATGGTTG (all phosphorothioate, sugars by position not given here; further chemistry not fully specified) [ISIS 549458]
[1]; dose 0.04 μM
  Percent inhibition of cell proliferation: 7%
[1]; dose 0.20 μM
  Percent inhibition of cell proliferation: 31%
[1]; dose 1.00 μM
  Percent inhibition of cell proliferation: 45%
[1]; dose 5.00 μM
  Percent inhibition of cell proliferation: 41%
[2]
  levels of AR-V7 (Western analysis): reduced levels of full-length AR and AR-V7
[3]; dose 5.0 nM
  Percent inhibition of AR full-length mRNA: 41%
[3]; dose 16.7 nM
  Percent inhibition of AR full-length mRNA: 61%
[3]; dose 50.0 nM
  Percent inhibition of AR full-length mRNA: 78%
[4]; dose 5.0 nM
  Percent inhibition of cell proliferation: 0%
[4]; dose 16.7 nM
  Percent inhibition of cell proliferation: 17%
[4]; dose 50.0 nM
  Percent inhibition of cell proliferation: 40%
[5]
  levels of full-length AR (Western analysis): reduced levels of full-length AR and AR-V7
[6]; dose 5.0 nM
  Percent inhibition of AR splice variant, V7: 34%
[6]; dose 16.7 nM
  Percent inhibition of AR splice variant, V7: 58%
[6]; dose 50.0 nM
  Percent inhibition of AR splice variant, V7: 82%
[7]; free uptake 0.04-5.00 μM
  AR mRNA expression: inhibited AR mRNA expression more potently than ISIS 554221
[7]; dose 0.04 μM
  Percent inhibition of AR full-length mRNA: 16%
[7]; dose 0.20 μM
  Percent inhibition of AR full-length mRNA: 48%
[7]; dose 1.00 μM
  Percent inhibition of AR full-length mRNA: 80%
[7]; dose 5.00 μM
  Percent inhibition of AR full-length mRNA: 86%

## CNC(=O)c1ccc(N2C(=S)N(c3ccc(C#N)c(C(F)(F)F)c3)C(=O)C2(C)C)cc1F [MDV3100, 4-(3-(4-cyano-3-(trifluoromethyl)phenyl)-5,5-dimethyl-4-oxo-2-thioxoimidazolidin-1-yl)-2-fluoro-N-methylbenzamide, reference compound]
[8]
  increase in IC50 of MDV3100 in LMR20 compared to parental LnCaP cells: approximately ten-fold increase in IC50

## TTGATTTAATGGTTGC [ISIS 560131] (MOE and (S)-cEt gapmer chemistry, further chemistry not given here)
[9]
  tolerability: kidney function: well tolerated in terms of the kidney function of the monkeys
[10]
  C3 (% of baseline): 100 % of baseline
  CRP: 1.7 mg/dL
[11]
  Oligonucleotide concentration, Kidney: 2029 μg/g tissue
[12]
  tolerability: liver function markers: well tolerated in terms of the liver function markers
[13]
  tolerability: body and organ weights: well tolerated in terms of the body and organ weights of the monkeys
[14]
  tolerability: hematology: well tolerated in terms of the hematology of the monkeys
[15]
  Urine protein/creatinine ratio: 0.02

## TGATTTAATGGTTGCA [ISIS 569236] (cEt/MOE gapmer chemistry, further chemistry not given here)
[10]
  C3 (% of baseline): 103 % of baseline
  CRP: 2.6 mg/dL
